Experiment: Water solubility test: extraction from water into ethyl acetate, weight of residue
Format: physicochemical
Conditions: for weight of the residue: 0.500 g dissolved in 10 mL water at room temperature, 10 mL ethyl acetate added, stirred 10 min, organic layer dried and concentrated
Procedure: In 10 mL of water, 0.500 g of the compound represented by formula (14a-x) was dissolved at room temperature, and 10 mL of ethyl acetate was added thereto, and the resulting mixture was stirred for 10 min, and then the organic layer was dried over anhydrous sodium sulfate. The desiccant was filtered off, and then the filtrate was concentrated under reduced pressure. The weight of the residue was 0.101 g.
In 10 mL of water, 0.500 g of a compound represented by formula (15), namely, mevalonolactone was dissolved at room temperature, and 10 mL of ethyl acetate was added thereto, and the resulting mixture was stirred for 10 min, and then the organic layer was dried over anhydrous sodium sulfate. The desiccant was filtered off, and then the filtrate was concentrated under reduced pressure. Then weight of the residue was 0.080 g.

Structure (SMILES) | weight of the residue [g] | water solubility compared with the compound used in Comparative Example 1 (conclusion from ethyl acetate extraction test)
C[C@H]1C(=O)OCC[C@@]1(C)O [Compound 14a-x, α-methyl-mevalonolactone] | 0.101 | lower water solubility
CC1(O)CCOC(=O)C1 (stereo not drawn) [Compound 15, mevalonolactone, reference compound] | 0.080 | –

Reference: patent US11312804B2, “Polymerizable compound, polymerizable composition, polymer, and photoresist composition” (JNC CORPORATION, priority 2018, dated 2022)
